Measurements: patent publication US7291740B2, “5-[4-[2-(N-methyl-N-(2-pyridyl)amino)ethoxy]benzyl]thiazolidine-2,4-dione Mesylate salt” (SmithKline Beecham p.l.c., priority 2000, dated 2007)
Like-named read-outs stand apart in the source and are kept apart here.

Experiment: Solubility of the Mesylate in water (aliquot addition until the powder dissolved)
Format: physicochemical
Excerpt: The visual solubility was confirmed by an HPLC assay of a saturated solution.

Compound | Solubility (water, visual dissolution (Form IV confirmed by HPLC assay of a saturated solution)) | Solubility
CN(CCOc1ccc(CC2SC(=O)NC2=O)cc1)c1ccccn1.CS(=O)(=O)O (stereo not shown) [Example 1, 5-[4-[2-(N-methyl-N-(2-pyridyl)amino)ethoxy]benzyl]thiazolidine-2,4-dione methanesulfonate Form I] | > 100 mg/mL | 
CN(CCOc1ccc(CC2SC(=O)NC2=O)cc1)c1ccccn1.CS(=O)(=O)O (stereo not shown) [Example 3, 5-[4-[2-(N-methyl-N-(2-pyridyl)amino)ethoxy]benzyl]thiazolidine-2,4-dione methanesulfonate Form II] |  | > 100 mg/mL
CN(CCOc1ccc(CC2SC(=O)NC2=O)cc1)c1ccccn1.CS(=O)(=O)O (stereo not shown) [Example 4, 5-[4-[2-(N-methyl-N-(2-pyridyl)amino)ethoxy]benzyl]thiazolidine-2,4-dione methanesulfonate Form III] |  | > 100 mg/mL
CN(CCOc1ccc(CC2SC(=O)NC2=O)cc1)c1ccccn1.CS(=O)(=O)O (stereo not shown) [Example 11, 5-[4-[2-(N-methyl-N-(2-pyridyl)amino)ethoxy]benzyl]thiazolidine-2,4-dione methanesulfonate Form IV] |  | > 100 mg/mL
